# Measurements taken from patent EP4806899A1, “FUSED RING DERIVATIVE, PREPARATION METHOD THEREFOR AND USE THEREOF IN MEDICINE” (Shanghai Qilu Pharmaceutical Research and Development …, priority 2023, dated 2025).
# Key:
# [1] = Pharmacokinetic determination in monkeys after gavage administration (P.O.); type: in vivo, Cynomolgus monkeys (Macaca fascicularis); conditions: cynomolgus monkey, po, 1 mg/kg, plasma
# Experimental: Cynomolgus monkeys (Macaca fascicularis) were used as test animals to study the pharmacokinetic behavior of the compounds of the present disclosure in plasma following gavage administration (P.O.). Plasma samples were collected at specific time points, compound concentrations in plasma were detected by LC-MS/MS, and pharmacokinetic parameters were calculated to reflect the pharmacokinetics in cynomolgus monkeys.
# Cynomolgus monkeys, male, Ankaiyibo (Zhanjiang) Biotechnology Co., Ltd.
# After administration to cynomolgus monkeys, venous blood samples of 0.3 mL were collected at 0.25, 0.5, 1, 2, 4, 8, and 24 hours and placed in EDTA-K2 test tubes. Plasma was separated by centrifugation at 4 °C, 4000 g for 5 minutes and stored at -80 °C.
# • 1) 50 µL of plasma sample was precipitated by adding 200 µL of acetonitrile, vortex mixed, and centrifuged for 15 minutes. • 2) The processed supernatant was diluted with water and analyzed by LC/MS/MS to determine the concentration of the test compound.
# Pharmacokinetic parameters were calculated using WinNonlin 8.3. Cmax represents the maximum plasma concentration, T1/2 represents the terminal elimination half-life, MRTInf represents the mean residence time, and AUC represents the area under the plasma concentration-time curve. Table 6 Pharmacokinetic Parameters of the Compounds of the Present Disclosure in Monkeys
# [2] = target: T1, human CYP11B1 enzyme (Homo sapiens, UniProt P15538); assay: Enzyme inhibition activity assay in G402 cells stably expressing human CYP11B1 (cortisol production from 11-DC, LC/MS); type: cell-based; conditions: 1 µM 11-DC, 16 hours, cortisol detected
# T1 construct: the ORF of human CYP11B1 or CYP11B2 were transfected into G402 cells; expressed in transfected cells
# T1 sequence (P15538 25-503): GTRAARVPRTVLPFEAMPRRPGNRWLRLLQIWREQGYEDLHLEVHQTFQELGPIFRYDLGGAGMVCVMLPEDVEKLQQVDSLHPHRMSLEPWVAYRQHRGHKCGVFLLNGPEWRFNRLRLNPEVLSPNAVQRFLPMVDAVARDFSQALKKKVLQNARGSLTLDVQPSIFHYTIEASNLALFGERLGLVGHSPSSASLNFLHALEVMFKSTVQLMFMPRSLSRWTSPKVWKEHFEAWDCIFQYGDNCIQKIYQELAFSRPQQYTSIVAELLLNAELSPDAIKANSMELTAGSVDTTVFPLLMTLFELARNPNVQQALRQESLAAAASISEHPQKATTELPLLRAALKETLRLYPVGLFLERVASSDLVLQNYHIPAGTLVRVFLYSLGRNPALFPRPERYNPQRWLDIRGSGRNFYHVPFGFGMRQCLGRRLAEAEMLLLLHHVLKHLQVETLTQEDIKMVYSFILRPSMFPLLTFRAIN
# Outline: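 G402 cells stably expressing human CYP11B2 or CYP11B1, preincubated 1 h with inhibitor in DMEM/F12 plus 2.5% charcoal-stripped FCS, then 16 h with 1 µM 11-DOC or 1 µM 11-DC. Aldosterone or cortisol quantified by LC/MS; IC50 from four-parameter logistic fit versus uninhibited control.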
# [3] = Pharmacokinetic determination in mice after gavage administration (P.O.); type: in vivo; conditions: male, CD-1, mouse, po, 10 mg/kg, plasma
smiles,measurement,setting,value
CCC(=O)N[C@@H]1CCOc2c(-c3ccc4c(c3)CCC(=O)N4C)cncc21 [Compound A02-P2],Cmax,[1]; in vivo,1600 nM
same,MRT inf,[1]; in vivo,8.77 h
same,half-life,[1]; in vivo,446 min
same,AUC(0-t) at 24 h,"[1]; in vivo, read-out: AUC0-24",12.8 µM·h
same,IC50,[2],3680 nM
[2H]C([2H])([2H])OC(=O)N[C@@H]1CCOc2c(-c3cc(F)c4c(ccc(=O)n4C)c3)cncc21 [Compound A50],Cmax,[1]; male,1140 nM
same,MRT inf,[1]; male,13 h
same,half-life,[1]; male,630 min
same,AUC(0-t),"[1]; male, read-out: AUC0-24",13.5 µM·h
same,Cmax,[3],9.07 µM
same,AUC(0-t),[3]; read-out: AUC0-24,136 µM·h
same,IC50,[2],2110 nM
